Experimental data from patent publication US20240239779A1, “HERBICIDAL COMPOUNDS” (SYNGENTA CROP PROTECTION AG, priority 2021, published 2024).

Key:
Type in all cases: in vivo
Details in all cases: 250 g/ha, evaluated after 13 days, 100=total damage to plant, 0=no damage to plant
SETFA [1] = experiment: Post-emergence biological efficacy
Description: (§1) Seeds of weeds and/or crops were sown in standard soil in pots. After cultivation for 14 days under controlled conditions in a glasshouse (at 24/19° C., day/night; 16 hours light), the plants were sprayed with an aqueous spray solution derived from the formulation of the technical active ingredient in a small amount of acetone and a special solvent and emulsifier mixture referred to as IF50 (11.12% Emulsogen EL360 TM+44.44% N-methylpyrrolidone+44.44% Dowanol DPM glycol ether), to create a 50 g/l solution which was then diluted using 0.2% Genapol XO80 as diluent to give the desired final dose of test compound.
(§2) The test plants were then grown under controlled conditions in the glasshouse (at 24/18° C., day/night; 15 hours light; 50% humidity)and watered twice daily. After 13 days the test was evaluated (100=total damage to plant; 0=no damage to plant).

CHEAL = experiment: Post-emergence biological efficacy
Description: as §1, §2

IPOHE [2] = experiment: Post-emergence biological efficacy
Description: as §1, §2

AMAPA [3] = experiment: Post-emergence biological efficacy
Description: as §1, §2

DIGSA = experiment: Post-emergence biological efficacy
Description: as §1, §2

EPHHL [4] = experiment: Post-emergence biological efficacy
Description: as §1, §2

ECHCG [5] = experiment: Post-emergence biological efficacy
Description: as §1, §2

ELEIN = experiment: Post-emergence biological efficacy
Description: as §1, §2

LOLPE [6] = experiment: Post-emergence biological efficacy
Description: as §1, §2

SETFA [7] = experiment: Pre-emergence biological efficacy
Description: as §1, with “one day” for “14 days”
(§3) The test plants were then grown under controlled conditions in the glasshouse (at 24/18° C., day/night; 15 hours light; 50% humidity) and watered twice daily. After 13 days the test was evaluated (100=total damage to plant; 0=no damage to plant).

IPOHE [8] = experiment: Pre-emergence biological efficacy
Description: as §1, with “one day” for “14 days”
as §3

AMAPA [9] = experiment: Pre-emergence biological efficacy
Description: as §1, with “one day” for “14 days”
as §3

EPHHL [10] = experiment: Pre-emergence biological efficacy
Description: as §1, with “one day” for “14 days”
as §3

ECHCG [11] = experiment: Pre-emergence biological efficacy
Description: as §1, with “one day” for “14 days”
as §3

LOLPE [12] = experiment: Pre-emergence biological efficacy
Description: as §1, with “one day” for “14 days”
as §3

## CCOC(=O)C1(C)CC(c2nc(-n3c(=O)cc(C(F)(F)F)n(C)c3=O)c(F)cc2Cl)=NO1 (stereo not drawn) [Compound 14, ethyl 3-[3-chloro-5-fluoro-6-[3-methyl-2,6-dioxo-4-(trifluoromethyl)pyrimidin-1-yl]-2-pyridyl]-5-methyl-4H-isoxazole-5-carboxylate]
SETFA [1]
  damage to plant, SETFA: 100
CHEAL
  damage to plant, CHEAL: 100
IPOHE [2]
  damage to plant, IPOHE: 100
AMAPA [3]
  damage to plant, AMAPA: 100
DIGSA
  damage to plant, DIGSA: 100
EPHHL [4]
  damage to plant, EPHHL: 100
ECHCG [5]
  damage to plant, ECHCG: 100
ELEIN
  damage to plant, ELEIN: 100
LOLPE [6]
  damage to plant, LOLPE: 100
SETFA [7]
  damage to plant, SETFA: 100
IPOHE [8]
  damage to plant, IPOHE: 100
AMAPA [9]
  damage to plant, AMAPA: 100
EPHHL [10]
  damage to plant, EPHHL: 100
ECHCG [11]
  damage to plant, ECHCG: 100
LOLPE [12]
  damage to plant, LOLPE: 90
